In patent US12371428B2 (Exelixis, Inc., priority 2019, dated 2025) one finds IC50 data, which are given here for 15 compounds.

Assay [1] has as its target KDR (phospho-KDR, VEGF165-stimulated HUVEC cells) (Homo sapiens (Human), UniProt P35968). Briefly: KDR autophosphorylation ELISA in HUVEC cells (Example G). It counts as cell-based. As to conditions: cellular activity; KDR autophosphorylation ELISA in HUVEC cells. In a few lines: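 Read-out: phospho-KDR in cell lysates by DuoSet IC ELISA, normalised between VEGF-stimulated DMSO wells (100%) and unstimulated wells (0%). Human endothelial cells were starved overnight in serum-free medium, exposed to compound for 1 h, and then pulsed with 100 ng/mL VEGF165 for 5 min.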
A general note: An ELISA detects its analyte on a solid surface through an enzyme-linked reagent.

The target of assay [2] is Human MER (residues 528-999) (Homo sapiens (Human), UniProt Q12866). Briefly: Human Mer kinase assay, HTRF KinEase (Example C-2). Particulars: protocol of Example C-2 (other compounds). It counts as biochemical. The procedure, abridged:
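IC50 values from 10 concentrations via 4-parameter logistic fit of […], with DMSO as 100% and 1 μM reference compound as 0% activity. Reaction: MER kinase domain 528-999, 1 ng/well, 40 μM ATP (Km), biotin peptide, 5 mM MgCl2, 1 mM DTT, 3% DMSO, room temperature 60 min; HTRF streptavidin-XL665/Eu-antibody detection.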
Background: In TR-FRET formats the signal depends on donor and acceptor labels being close together.

Assay [3] has as its target Human KDR (residues 790-1356) (Homo sapiens (Human), UniProt P35968). Briefly: Human KDR kinase assay, HTRF KinEase (Example B-2). Particulars: protocol of Example B-2 (other compounds). It counts as biochemical. In a few lines: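 Ten compound concentrations (3% DMSO final) were pre-plated, then KDR (790-1356) with biotinylated peptide in Mg/Mn/DTT buffer was added; ATP at Km (4.0 μM) started a 40 min room-temperature reaction. Detection used Eu-TK antibody and SA-XL665 in EDTA buffer; activity normalized to DMSO and reference inhibitor, IC50 by logistic fit.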

Assay [4] has as its target Human MET (residues 956-1390) (Homo sapiens (Human), UniProt P08581). Nature of the assay: Human Met kinase assay, HTRF KinEase (Example D-2). It counts as biochemical. Particulars: protocol of Example D-2 (other compounds); read-out: c-Met IC50. In a few lines: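 IC50 values come from a 4-parameter logistic fit of the […] fluorescence ratio, set between DMSO (100%) and reference compound at 1 μM (0%). Reactions held MET 956-1390 at 0.1 ng/well, ATP at Km, biotinylated peptide, 5 mM MgCl2, 1 mM MnCl2, 1 mM DTT and 3% DMSO, and ran 40 min at room temperature before streptavidin-XL665/Eu-antibody detection.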

pIC50: −log10 of the molar value.

Sequence of Human KDR (residues 790-1356) (P35968 790-1356): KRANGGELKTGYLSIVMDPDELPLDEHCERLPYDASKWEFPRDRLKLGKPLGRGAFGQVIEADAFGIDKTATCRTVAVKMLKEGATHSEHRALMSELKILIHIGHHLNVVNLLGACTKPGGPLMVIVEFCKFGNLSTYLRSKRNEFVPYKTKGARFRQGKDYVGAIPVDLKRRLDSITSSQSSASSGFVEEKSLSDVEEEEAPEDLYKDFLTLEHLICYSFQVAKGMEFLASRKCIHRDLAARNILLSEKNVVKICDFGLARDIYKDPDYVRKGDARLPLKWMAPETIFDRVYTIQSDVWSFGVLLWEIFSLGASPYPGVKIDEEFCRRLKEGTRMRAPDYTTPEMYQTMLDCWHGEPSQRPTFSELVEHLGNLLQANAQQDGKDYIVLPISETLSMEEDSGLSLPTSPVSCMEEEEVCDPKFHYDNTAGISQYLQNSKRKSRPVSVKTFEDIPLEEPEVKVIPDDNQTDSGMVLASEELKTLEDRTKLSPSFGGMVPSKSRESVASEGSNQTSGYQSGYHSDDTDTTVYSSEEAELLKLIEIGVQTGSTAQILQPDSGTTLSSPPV
Sequence of Human MET (residues 956-1390) (P08581 956-1390): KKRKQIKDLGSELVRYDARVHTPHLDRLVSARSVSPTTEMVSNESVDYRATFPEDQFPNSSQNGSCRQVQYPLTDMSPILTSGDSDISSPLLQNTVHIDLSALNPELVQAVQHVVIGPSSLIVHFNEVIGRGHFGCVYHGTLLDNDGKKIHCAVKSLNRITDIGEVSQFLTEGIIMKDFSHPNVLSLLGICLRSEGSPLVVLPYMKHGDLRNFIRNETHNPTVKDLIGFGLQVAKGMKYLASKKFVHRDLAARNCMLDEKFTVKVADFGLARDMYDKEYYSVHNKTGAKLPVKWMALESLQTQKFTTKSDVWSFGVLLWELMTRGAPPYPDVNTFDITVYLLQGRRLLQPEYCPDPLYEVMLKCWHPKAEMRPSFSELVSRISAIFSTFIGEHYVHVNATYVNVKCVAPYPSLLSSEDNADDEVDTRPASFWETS
Sequence of Human MER (residues 528-999) (Q12866 528-999): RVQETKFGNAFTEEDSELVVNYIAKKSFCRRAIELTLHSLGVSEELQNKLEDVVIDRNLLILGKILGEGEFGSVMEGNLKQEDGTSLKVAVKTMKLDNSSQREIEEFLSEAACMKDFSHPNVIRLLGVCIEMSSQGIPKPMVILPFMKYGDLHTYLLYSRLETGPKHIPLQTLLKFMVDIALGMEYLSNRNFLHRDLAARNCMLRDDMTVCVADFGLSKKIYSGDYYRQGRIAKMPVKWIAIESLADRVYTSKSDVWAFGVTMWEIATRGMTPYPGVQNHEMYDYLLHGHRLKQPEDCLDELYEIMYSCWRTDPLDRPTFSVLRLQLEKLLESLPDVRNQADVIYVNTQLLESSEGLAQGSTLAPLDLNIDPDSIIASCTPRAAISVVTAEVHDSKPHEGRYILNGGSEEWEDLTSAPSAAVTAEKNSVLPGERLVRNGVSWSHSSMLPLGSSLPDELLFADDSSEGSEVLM
Sequence of KDR (phospho-KDR, VEGF165-stimulated HUVEC cells) (P35968 20-1356): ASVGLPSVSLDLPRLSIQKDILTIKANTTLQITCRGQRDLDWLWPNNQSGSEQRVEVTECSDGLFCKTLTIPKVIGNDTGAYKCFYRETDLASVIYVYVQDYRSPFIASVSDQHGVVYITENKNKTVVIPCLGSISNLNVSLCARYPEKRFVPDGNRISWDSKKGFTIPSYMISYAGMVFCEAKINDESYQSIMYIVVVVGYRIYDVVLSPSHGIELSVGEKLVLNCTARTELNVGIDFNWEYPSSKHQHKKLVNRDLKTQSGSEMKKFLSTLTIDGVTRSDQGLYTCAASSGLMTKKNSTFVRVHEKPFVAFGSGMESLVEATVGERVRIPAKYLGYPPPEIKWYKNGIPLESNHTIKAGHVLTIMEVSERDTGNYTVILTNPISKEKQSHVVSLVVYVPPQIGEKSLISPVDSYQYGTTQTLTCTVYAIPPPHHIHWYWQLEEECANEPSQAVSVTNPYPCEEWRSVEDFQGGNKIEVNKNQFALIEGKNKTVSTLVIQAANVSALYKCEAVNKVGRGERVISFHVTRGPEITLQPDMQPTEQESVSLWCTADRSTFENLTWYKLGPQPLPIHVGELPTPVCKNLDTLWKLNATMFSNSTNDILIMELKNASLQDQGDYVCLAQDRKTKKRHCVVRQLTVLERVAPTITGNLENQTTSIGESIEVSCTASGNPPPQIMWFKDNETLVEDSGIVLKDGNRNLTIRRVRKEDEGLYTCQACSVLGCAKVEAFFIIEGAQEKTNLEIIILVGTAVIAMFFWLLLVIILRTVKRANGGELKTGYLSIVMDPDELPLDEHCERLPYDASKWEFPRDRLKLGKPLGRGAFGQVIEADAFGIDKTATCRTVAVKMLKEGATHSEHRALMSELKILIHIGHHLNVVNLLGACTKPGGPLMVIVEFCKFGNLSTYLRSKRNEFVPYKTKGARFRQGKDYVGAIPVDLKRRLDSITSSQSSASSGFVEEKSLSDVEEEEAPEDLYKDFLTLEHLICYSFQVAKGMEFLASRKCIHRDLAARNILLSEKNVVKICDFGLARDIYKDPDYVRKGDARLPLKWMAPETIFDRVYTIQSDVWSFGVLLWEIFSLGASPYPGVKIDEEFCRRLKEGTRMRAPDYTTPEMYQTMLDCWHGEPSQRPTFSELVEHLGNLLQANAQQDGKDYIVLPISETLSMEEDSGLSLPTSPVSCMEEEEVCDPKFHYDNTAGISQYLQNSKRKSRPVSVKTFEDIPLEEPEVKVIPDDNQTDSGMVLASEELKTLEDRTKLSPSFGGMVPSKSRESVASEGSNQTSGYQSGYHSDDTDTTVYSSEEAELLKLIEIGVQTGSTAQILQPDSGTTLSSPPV

As a reminder, the pIC50 is −log10 of the IC50, conventionally taken in molar units. `COc1cc2nccc(Oc3ccc(NC(=O)c4cn(C)c(CO)c(-c5ccc(F)cc5)c4=O)cc3F)c2nc1OC` [Compound 72, N-[4-[(6,7-Dimethoxy-1,5-naphthyridin-4-yl)oxy]-3-fluorophenyl]-5-(4-fluorophenyl)-6-(hydroxymethyl)-1-methyl-4-oxopyridine-3-carboxamide]: the pIC50 was 6.52 to 7.00 in assay [1], above 7.00 in assay [2], 6.52 to 7.00 in assay [3] and above 7.00 in assay [4].

In the case of `COc1cc2nccc(Oc3ccc(NC(=O)c4nc(C)c(C)n(-c5ccc(F)cc5)c4=O)cc3F)c2nc1OC` [Compound 95, N-[4-[(6,7-Dimethoxy-1,5-naphthyridin-4-yl)oxy]-3-fluorophenyl]-4-(4-fluorophenyl)-5,6-dimethyl-3-oxopyrazine-2-carboxamide], the pIC50 is below 6.52 in assay [1], above 7.00 in assay [2], 6.52 to 7.00 in assay [3] and above 7.00 in assay [4].

Regarding `COc1cnc2c(Oc3ccc(NC(=O)c4cn(C)c(Cl)c(-c5ccc(F)cc5)c4=O)cc3F)ccnc2c1` [Compound 411, 6-chloro-N-[3-fluoro-4-[(7-methoxy-1,5-naphthyridin-4-yl)oxy]phenyl]-5-(4-fluorophenyl)-1-methyl-4-oxopyridine-3-carboxamide], the pIC50 in assay [1] is below 6.52; in assay [2], above 7.00; in assay [3], below 6.52; in assay [4] it was above 7.00.

Regarding `COc1cc2nccc(Oc3ccc(NC(=O)c4cc(C#N)c(C)n(-c5ccc(F)cc5)c4=O)cc3F)c2nc1OC` [Compound 87, 5-Cyano-N-[4-[(6,7-dimethoxy-1,5-naphthyridin-4-yl)oxy]-3-fluorophenyl]-1-(4-fluorophenyl)-6-methyl-2-oxopyridine-3-carboxamide], the pIC50 in assay [1] was below 6.52; in assay [2], above 7.00; in assay [3], below 6.52; in assay [4] it was above 7.00.

`COc1cc2nccc(Oc3ccc(NC(=O)c4nn(C)c(C)c(-c5ccc(F)cc5)c4=O)cc3F)c2nc1OC` [Compound 92, N-[4-[(6,7-Dimethoxy-1,5-naphthyridin-4-yl)oxy]-3-fluorophenyl]-5-(4-fluorophenyl)-1,6-dimethyl-4-oxopyridazine-3-carboxamide]: the pIC50 was above 7.00 in assay [1], above 7.00 in assay [2], 6.52 to 7.00 in assay [3] and above 7.00 in assay [4].

As to `COc1ccc2nccc(Oc3ccc(NC(=O)c4cn(C5CC5)c(C)c(-c5ccc(F)cc5)c4=O)cc3F)c2n1` [Compound 435, 1-cyclopropyl-N-[3-fluoro-4-[(6-methoxy-1,5-naphthyridin-4-yl)oxy]phenyl]-5-(4-fluorophenyl)-6-methyl-4-oxopyridine-3-carboxamide], the pIC50 is below 6.52 in assay [1], above 7.00 in assay [2], below 6.52 in assay [3] and above 7.00 in assay [4].

`C=Cc1cc2nccc(Oc3ccc(NC(=O)c4cnc(C)c(-c5ccc(F)cc5)c4O)cc3F)c2nc1OC` [Compound 422, N-[4-[(7-ethenyl-6-methoxy-1,5-naphthyridin-4-yl)oxy]-3-fluorophenyl]-5-(4-fluorophenyl)-4-hydroxy-6-methylpyridine-3-carboxamide]: the pIC50 in assay [1], in assay [2], in assay [3] and in assay [4] was above 7.00 in each case.

In the case of `COc1cc2nccc(Oc3ccc(NC(=O)c4cnc(C)c(-c5ccc(F)cc5)c4O)cc3)c2nc1OC(C)C` [Compound 413, 5-(4-fluorophenyl)-4-hydroxy-N-[4-[(7-methoxy-6-propan-2-yloxy-1,5-naphthyridin-4-yl)oxy]phenyl]-6-methylpyridine-3-carboxamide], the negative-log IC50 (pIC50) in assay [1], in assay [2], in assay [3] and in assay [4] was above 7.00 in each case.

As for `COc1cc2nccc(Oc3ccc(NC(=O)c4cnc(C)c(-c5ccc(F)cc5C)c4O)cc3F)c2nc1OC` [Compound 69, N-[4-[(6,7-Dimethoxy-1,5-naphthyridin-4-yl)oxy]-3-fluorophenyl]-5-(4-fluoro-2-methylphenyl)-4-hydroxy-6-methylpyridine-3-carboxamide], the negative logarithm of the IC50 (pIC50) in assay [1], in assay [2], in assay [3] and in assay [4] was above 7.00 in each case.

For the compound `COc1cc2nccc(Oc3ccc(NC(=O)c4cn(C5CC5)c(C)c(-c5ccc(F)cc5C)c4=O)cc3F)c2nc1OC` [Compound 439, 1-cyclopropyl-N-[4-[(6,7-dimethoxy-1,5-naphthyridin-4-yl)oxy]-3-fluorophenyl]-5-(4-fluoro-2-methylphenyl)-6-methyl-4-oxopyridine-3-carboxamide], the negative-log IC50 (pIC50) in assay [1] was below 6.52; in assay [2] it was above 7.00; in assay [3] it was below 6.52; in assay [4], 6.52 to 7.00.

With `COCCOc1nc2c(Oc3ccc(NC(=O)c4cnc(C)c(-c5ccc(F)cc5)c4O)cc3F)ccnc2cc1C` [Compound 436, N-[3-fluoro-4-[[6-(2-methoxyethoxy)-7-methyl-1,5-naphthyridin-4-yl]oxy]phenyl]-5-(4-fluorophenyl)-4-hydroxy-6-methylpyridine-3-carboxamide], the pIC50 in assay [1] is above 7.00; in assay [2] it was above 7.00; in assay [3], 6.52 to 7.00; in assay [4], above 7.00.

For the compound `COc1cc2nccc(Oc3ccc(NC(=O)c4ncc(C)n(-c5ccc(F)cc5)c4=O)cc3F)c2nc1OC` [Compound 93, N-[4-[(6,7-Dimethoxy-1,5-naphthyridin-4-yl)oxy]-3-fluorophenyl]-4-(4-fluorophenyl)-5-methyl-3-oxopyrazine-2-carboxamide], the pIC50 in assay [1], in assay [2], in assay [3] and in assay [4] was above 7.00 each time.

For the compound `COc1cc2nccc(Oc3ccc(NC(=O)c4c(C)n(C)cc(-c5ccc(F)cc5)c4=O)cc3F)c2nc1OC` [Compound 81, N-[4-[(6,7-Dimethoxy-1,5-naphthyridin-4-yl)oxy]-3-fluorophenyl]-5-(4-fluorophenyl)-1,2-dimethyl-4-oxopyridine-3-carboxamide], the negative-log IC50 (pIC50) in assay [1], in assay [2], in assay [3] and in assay [4] was above 7.00 in each case.

Turning to `Cc1cc(F)ccc1-c1c(C)ncc(C(=O)Nc2ccc(Oc3ccnc4cc(C)c(F)nc34)c(F)c2)c1O` [Compound 427, N-[3-fluoro-4-[(6-fluoro-7-methyl-1,5-naphthyridin-4-yl)oxy]phenyl]-5-(4-fluoro-2-methylphenyl)-4-hydroxy-6-methylpyridine-3-carboxamide], the pIC50 is above 7.00 in assay [1], above 7.00 in assay [2], below 6.52 in assay [3] and 6.52 to 7.00 in assay [4].

In the case of `COCCOc1nc2c(Oc3ccc(NC(=O)c4cnc(C)c(-c5ccc(F)cc5)c4O)cc3)ccnc2cc1C` [Compound 437, 5-(4-fluorophenyl)-4-hydroxy-N-[4-[[6-(2-methoxyethoxy)-7-methyl-1,5-naphthyridin-4-yl]oxy]phenyl]-6-methylpyridine-3-carboxamide], the pIC50 in assay [1], in assay [2], in assay [3] and in assay [4] was above 7.00 in each case.
